Test results reported in patent US4973708A, “3-hydroxy-N-methylpyrrolidone and preparation thereof” (University of Kentucky Research Foundation, priority 1988, dated 1990).

Columns and labels:
[1] = type: in vitro ADME, human
Procedure: Standard Franz diffusion cells (15 mm i.d., o-ring design) were manufactured by Crown Glass Inc., Somerville, N.J. The cell caps were modified with ground glass joints to fit 14/20 ground glass stoppers. A Franz diffusion cell drive console F-DCD-9 was also manufactured by Crown Glass. A Vandercamp 2500 recirculating water bath was used to maintain the cells at 37° C. Split thickness human allograph tissues (0.015 in. thickness), thigh back area, was obtained from the Tissue Transplant Bank, St. Agnes Medical Center, Philadelphia, Pa. Samples were counted in a Packard Auto-Gamma Scintillation Spectrometer.
Sterile Saline (0.9% Sodium Chloride USP, Travenol, NDC 0338-0049-04 lot co56747), Albumin (Bovine, fraction v, Sigma A-4503 lot 127F-0877), N-Methyl-2-pyrrolidone (Aldrich 99+ % Cat No. 24,279-9 lot 04402TP), Neomycin Sulfate (Sigma N-1876 lot 66F-0151), absolute ethanol (Midwest Solvents Company of Illinois).
Human allograph tissue, which had been stored at -70° C., was thawed and immediately mounted in a Franz type diffusion cell. The receptor chamber was filled with normal saline containing 2% albumin and 0.05% neomycin sulfate. Each cell was maintained at 37° C. and stirred at 600 rpm. After the cells had been allowed to equilibrate for 4 to 6 hours, 200 ul of a saturated ethanolic solution of 5-chloro-8-hydroxy-7-[^125I]-iodoquinoline (approx. 70 uCi, 0.44 mg) was applied to the donor side of each cell. This was immediately followed by either 200 μl of absolute ethanol for the control cells, 200 μl of 50% (w/v 3-hydroxy-N-methylpyrrolidone in ethanol or an equimolar ethanolic solution of N-methylpyrrolidone (43.1% w/v). The cells were then capped with ground glass stoppers. At various time intervals, over an 80-100 hour period, the entire contents of the receptor chamber was removed with a 10 cc syringe and placed into a vial. The receptor chamber was then refilled with fresh solution. After the last collection these vials were placed in a well-type gamma counter and counted for I-125 activity.
At the time of dosing 200 μl of the saturated 5-chloro-8-hydroxy-7-[^125 I]-iodoquinoline solution was placed into separate vials to calculate the amount of activity (dose) applied to the skin.
In this example, 3-hydroxy-N-methyl pyrrolidone was tested for its use as a percutaneous penetration enhancer. In vitro studies were carried out using Franz type diffusion cells. The penetration enhancing properties of 3-hydroxy-N-methylpyrrolidone was compared to N-methyl pyrrolidone, a compound known to enhance the penetration of drugs through the skin.
For these in vitro studies radioiodinated 5-chloro-8-hydroxy-7-iodoquinoline was chosen as a model drug. This drug, known as Clioquinol USP, is currently marketed by Ciba (Ciba Pharmaceutical Company, 556 Morris Avenue, Summit, N.J. 07901), as a topical antibacterial/antifungal agent trade named Vioform™. […] This radiolabeled marker is conveniently used to follow the penetration of the drug through the skin.
Franz diffusion cells are designed to mimic in vivo conditions. A finite dose of drug is applied to the stratum corneum side of the skin and penetration is followed by analyzing for the drug in the receptor phase underneath. In these studies the amount of drug crossing the skin barrier is estimated by counting total radioactivity in the receptor phase.
In a preliminary study, the transdermal absorption of Clioquinol was evaluated in the presence of 3-hydroxy-N-methylpyrrolidone, N-methylpyrrolidone, and in the absence of enhancer. An ethanolic solution of [I-131]-Clioquinol was applied to 3 cells followed by either ethanol (control), 50% 3-hydroxy-N-methylpyrrolidone in ethanol or an equimolar solution of N-methylpyrrolidone. In FIG. 1, the percent penetration of 5-chloro-8-hydroxy-7-[^131 I]-iodoquinoline through human skin is illustrated. The amount of 5-chloro-8-hydroxy-7-[^131 I]-iodoquinolineactivity applied is equal to 100%.
The study was repeated using I-125 labeled Clioquinol. […]

[2] = cited from earlier work
[3] = Metabolism of N-methylpyrrolidone, metabolite excreted in urine
Excerpt: As pointed out above, a penetration enhancer is a chemical compound which, when included in a transdermal formulation, affects the skin of a human by increasing permeability of the skin to allow more of a drug to be absorbed in a shorter period of time. The penetration enhancer is normally contained in a formulation, called a transdermal composition, in combination with the appropriate drug to be delivered and other known components of the formulation. […] As mentioned herein, N-methylpyrrolidone is a known penetration enhancer. In studies leading to this invention using the prior art compound, N-methyl-2-pyrrolidone, it was discovered that a major metabolite of N-methylpyrrolidone which is excreted in the urine is 3-hydroxy-N-methyl-2-pyrrolidone. […] Further, 3-hydroxy-N-methylpyrrolidone is a "softer" xenobiotic to the body because no energy will be expended in metabolic processes after the compound's absorption into the systemic circulation. Also, in view of the apparent safety of N-methylpyrrolidone, its major metabolite, 3-hydroxy-N-methylpyrrolidone, would be expected to have an even lower toxicity.

[4] = animal and human experiments; cited from earlier work

Row | amount of Clioquinol penetrating the skin, times greater than with N-methylpyrrolidone [1] | amount of Clioquinol penetrating the skin, times higher than the control [1] | amount of I-131 Clioquinol penetrated, times greater than the control [1] | amount of I-131 Clioquinol penetrated, times more than with N-methylpyrrolidone [1] | effectiveness in enhancing the absorption of drugs (conclusion in words) [1] | percent of Clioquinol absorbed in the presence of enhancer [1] | percent penetration of I-125 labeled Clioquinol through human skin (absorbed), with enhancer [1] | percent penetration of [I-131]-Clioquinol through human skin (absorbed), with enhancer [1] | percent penetration of I-125 labeled Clioquinol through human skin (absorbed), control [1] | percent penetration of [I-131]-Clioquinol through human skin (absorbed), control [1] | time in which the same amount of Clioquinol was absorbed, absence of enhancer [1] | major metabolite excreted in the urine [3] | SMILES | relative order of enhancement of Clioquinol penetration [1] | absorption through the skin ([2]; reason for choice as model drug) | irritation or sensitization potential [4] | penetration enhancement ([2]; literature)
1 | 1.3 times | 1.8 times | 3.9 times | 1.5 times | more effective than N-methylpyrrolidone | 19% | 40.0% | 10.2% | – | – | – | – | CN1CCC(O)C1=O (stereo not shown) [3-hydroxy-N-methylpyrrolidone, 3-hydroxy-N-methyl-2-pyrrolidone] | 3-hydroxy-N-methylpyrrolone >N-methylpyrrolone>control | – | – | –
2 | – | – | – | – | – | – | – | – | 19.5% | 2.6% | 85 h | – | Oc1c(I)cc(Cl)c2cccnc12 [Clioquinol, 5-chloro-8-hydroxy-7-iodoquinoline] | – | absorbed very slowly through the skin | – | –
3 | – | – | – | – | – | – | 27.8% | 6.5% | – | – | – | 3-hydroxy-N-methyl-2-pyrrolidone | CN1CCCC1=O [N-methylpyrrolidone, N-methyl-2-pyrrolidone] | N-methylpyrrolone>control | – | very little irritation or sensitization potential | effective penetration enhancer
